Numbers after ± are expanded uncertainties.
Tests used:
[1] = xn = mol fraction of the nth substance listed; conditions: 100 kPa, Liquid, Vibrating tube method
[2] = excess molar enthalpy (molar enthalpy of mixing); xn = mol fraction of the nth substance listed; conditions: 100 kPa, Liquid, Calvet calorimetry

CCCC[N+](C)(C)C.O=S(=O)([N-]S(=O)(=O)C(F)(F)F)C(F)(F)F [butyltrimethylammonium bis(trifluoromethylsulfonyl)imide] + CN(C)C=O
Conditions | excess molar enthalpy [kcal/mol] | mass density [kg/m3]
[1], 293.15 K, x2 = 0 | – | 1397.1 ± 4.2
[1], 293.15 K, x2 = 0.1268 | – | 1379.7 ± 4.2
[1], 293.15 K, x2 = 0.2011 | – | 1367.7 ± 4.1
[1], 293.15 K, x2 = 0.3028 | – | 1348.7 ± 4.1
[1], 293.15 K, x2 = 0.3824 | – | 1331.3 ± 4
[1], 293.15 K, x2 = 0.5078 | – | 1297.4 ± 3.9
[1], 293.15 K, x2 = 0.6249 | – | 1255.8 ± 3.8
[1], 293.15 K, x2 = 0.7548 | – | 1191.6 ± 3.6
[1], 293.15 K, x2 = 0.8764 | – | 1101.3 ± 3.3
[1], 293.15 K, x2 = 0.9157 | – | 1061.9 ± 3.2
[1], 295.15 K, x2 = 0 | – | 1395.3 ± 4.2
[1], 295.15 K, x2 = 0.1268 | – | 1377.9 ± 4.2
[1], 295.15 K, x2 = 0.2011 | – | 1365.9 ± 4.1
[1], 295.15 K, x2 = 0.3028 | – | 1346.9 ± 4.1
[1], 295.15 K, x2 = 0.3824 | – | 1329.5 ± 4
[1], 295.15 K, x2 = 0.5078 | – | 1295.6 ± 3.9
[1], 295.15 K, x2 = 0.6249 | – | 1253.9 ± 3.8
[1], 295.15 K, x2 = 0.7548 | – | 1189.7 ± 3.6
[1], 295.15 K, x2 = 0.8764 | – | 1099.4 ± 3.3
[1], 295.15 K, x2 = 0.9157 | – | 1060 ± 3.2
[1], 298.15 K, x2 = 0 | – | 1392.7 ± 4.2
[1], 298.15 K, x2 = 0.1268 | – | 1375.3 ± 4.2
[1], 298.15 K, x2 = 0.2011 | – | 1363.2 ± 4.1
[1], 298.15 K, x2 = 0.3028 | – | 1344.2 ± 4
[1], 298.15 K, x2 = 0.3824 | – | 1326.8 ± 4
[1], 298.15 K, x2 = 0.5078 | – | 1292.8 ± 3.9
[1], 298.15 K, x2 = 0.6249 | – | 1251.2 ± 3.8
[1], 298.15 K, x2 = 0.7548 | – | 1186.8 ± 3.6
[1], 298.15 K, x2 = 0.8764 | – | 1096.5 ± 3.3
[1], 298.15 K, x2 = 0.9157 | – | 1057.1 ± 3.2
[1], 303.15 K, x2 = 0 | – | 1388.3 ± 4.2
[1], 303.15 K, x2 = 0.1268 | – | 1370.8 ± 4.1
[1], 303.15 K, x2 = 0.2011 | – | 1358.8 ± 4.1
[1], 303.15 K, x2 = 0.3028 | – | 1339.7 ± 4
[1], 303.15 K, x2 = 0.3824 | – | 1322.2 ± 4
[1], 303.15 K, x2 = 0.5078 | – | 1288.2 ± 3.9
[1], 303.15 K, x2 = 0.6249 | – | 1246.5 ± 3.7
[1], 303.15 K, x2 = 0.7548 | – | 1182.1 ± 3.6
[1], 303.15 K, x2 = 0.8764 | – | 1091.8 ± 3.3
[1], 303.15 K, x2 = 0.9157 | – | 1052.4 ± 3.2
[1], 308.15 K, x2 = 0 | – | 1384 ± 4.2
[1], 308.15 K, x2 = 0.1268 | – | 1366.4 ± 4.1
[1], 308.15 K, x2 = 0.2011 | – | 1354.3 ± 4.1
[1], 308.15 K, x2 = 0.3028 | – | 1335.2 ± 4
[1], 308.15 K, x2 = 0.3824 | – | 1317.7 ± 4
[1], 308.15 K, x2 = 0.5078 | – | 1283.6 ± 3.9
[1], 308.15 K, x2 = 0.6249 | – | 1241.8 ± 3.7
[1], 308.15 K, x2 = 0.7548 | – | 1177.4 ± 3.5
[1], 308.15 K, x2 = 0.8764 | – | 1087 ± 3.3
[1], 308.15 K, x2 = 0.9157 | – | 1047.6 ± 3.1
[1], 313.15 K, x2 = 0 | – | 1379.6 ± 4.2
[1], 313.15 K, x2 = 0.1268 | – | 1362 ± 4.1
[1], 313.15 K, x2 = 0.2011 | – | 1349.9 ± 4.1
[1], 313.15 K, x2 = 0.3028 | – | 1330.7 ± 4
[1], 313.15 K, x2 = 0.3824 | – | 1313.1 ± 4
[1], 313.15 K, x2 = 0.5078 | – | 1279 ± 3.8
[1], 313.15 K, x2 = 0.6249 | – | 1237.2 ± 3.7
[1], 313.15 K, x2 = 0.7548 | – | 1172.7 ± 3.5
[1], 313.15 K, x2 = 0.8764 | – | 1082.3 ± 3.3
[1], 313.15 K, x2 = 0.9157 | – | 1042.8 ± 3.1
[1], 318.15 K, x2 = 0 | – | 1375.2 ± 4.2
[1], 318.15 K, x2 = 0.1268 | – | 1357.6 ± 4.1
[1], 318.15 K, x2 = 0.2011 | – | 1345.4 ± 4.1
[1], 318.15 K, x2 = 0.3028 | – | 1326.2 ± 4
[1], 318.15 K, x2 = 0.3824 | – | 1308.6 ± 3.9
[1], 318.15 K, x2 = 0.5078 | – | 1274.5 ± 3.8
[1], 318.15 K, x2 = 0.6249 | – | 1232.6 ± 3.7
[1], 318.15 K, x2 = 0.7548 | – | 1168 ± 3.5
[1], 318.15 K, x2 = 0.8764 | – | 1077.5 ± 3.2
[1], 318.15 K, x2 = 0.9157 | – | 1038.1 ± 3.1
[1], 323.15 K, x2 = 0 | – | 1370.9 ± 4.1
[1], 323.15 K, x2 = 0.1268 | – | 1353.2 ± 4.1
[1], 323.15 K, x2 = 0.2011 | – | 1341 ± 4
[1], 323.15 K, x2 = 0.3028 | – | 1321.8 ± 4
[1], 323.15 K, x2 = 0.3824 | – | 1304.1 ± 3.9
[1], 323.15 K, x2 = 0.5078 | – | 1269.9 ± 3.8
[1], 323.15 K, x2 = 0.6249 | – | 1227.9 ± 3.7
[1], 323.15 K, x2 = 0.7548 | – | 1163.3 ± 3.5
[1], 323.15 K, x2 = 0.8764 | – | 1072.8 ± 3.2
[1], 323.15 K, x2 = 0.9157 | – | 1033.3 ± 3.1
[1], 328.15 K, x2 = 0 | – | 1366.6 ± 4.1
[1], 328.15 K, x2 = 0.1268 | – | 1348.8 ± 4.1
[1], 328.15 K, x2 = 0.2011 | – | 1336.6 ± 4
[1], 328.15 K, x2 = 0.3028 | – | 1317.3 ± 4
[1], 328.15 K, x2 = 0.3824 | – | 1299.7 ± 3.9
[1], 328.15 K, x2 = 0.5078 | – | 1265.4 ± 3.8
[1], 328.15 K, x2 = 0.6249 | – | 1223.3 ± 3.7
[1], 328.15 K, x2 = 0.7548 | – | 1158.6 ± 3.5
[1], 328.15 K, x2 = 0.8764 | – | 1068 ± 3.2
[1], 328.15 K, x2 = 0.9157 | – | 1028.6 ± 3.1
[1], 333.15 K, x2 = 0 | – | 1362.3 ± 4.1
[1], 333.15 K, x2 = 0.1268 | – | 1344.5 ± 4.1
[1], 333.15 K, x2 = 0.2011 | – | 1332.3 ± 4
[1], 333.15 K, x2 = 0.3028 | – | 1312.9 ± 4
[1], 333.15 K, x2 = 0.3824 | – | 1295.2 ± 3.9
[1], 333.15 K, x2 = 0.5078 | – | 1260.8 ± 3.8
[1], 333.15 K, x2 = 0.6249 | – | 1218.7 ± 3.7
[1], 333.15 K, x2 = 0.7548 | – | 1153.9 ± 3.5
[1], 333.15 K, x2 = 0.8764 | – | 1063.3 ± 3.2
[1], 333.15 K, x2 = 0.9157 | – | 1023.8 ± 3.1
[2], 308.15 K, x2 = 0.1285 | -0.0987 ± 0.00406 | –
[2], 308.15 K, x2 = 0.2488 | -0.167 ± 0.00693 | –
[2], 308.15 K, x2 = 0.2496 | -0.168 ± 0.00693 | –
[2], 308.15 K, x2 = 0.2543 | -0.168 ± 0.00693 | –
[2], 308.15 K, x2 = 0.3983 | -0.232 ± 0.00956 | –
[2], 308.15 K, x2 = 0.5182 | -0.272 ± 0.011 | –
[2], 308.15 K, x2 = 0.5211 | -0.272 ± 0.011 | –
[2], 308.15 K, x2 = 0.6283 | -0.284 ± 0.0115 | –
[2], 308.15 K, x2 = 0.7679 | -0.253 ± 0.0103 | –
[2], 308.15 K, x2 = 0.889 | -0.162 ± 0.00669 | –
[2], 313.15 K, x2 = 0.1226 | -0.0961 ± 0.00382 | –
[2], 313.15 K, x2 = 0.2487 | -0.167 ± 0.00693 | –
[2], 313.15 K, x2 = 0.261 | -0.174 ± 0.00717 | –
[2], 313.15 K, x2 = 0.3939 | -0.232 ± 0.00932 | –
[2], 313.15 K, x2 = 0.5209 | -0.273 ± 0.0112 | –
[2], 313.15 K, x2 = 0.5249 | -0.275 ± 0.0112 | –
[2], 313.15 K, x2 = 0.625 | -0.286 ± 0.0117 | –
[2], 313.15 K, x2 = 0.7717 | -0.247 ± 0.01 | –
[2], 313.15 K, x2 = 0.8796 | -0.174 ± 0.00717 | –
[2], 323.15 K, x2 = 0.129 | -0.102 ± 0.00406 | –
[2], 323.15 K, x2 = 0.2459 | -0.169 ± 0.00693 | –
[2], 323.15 K, x2 = 0.2473 | -0.169 ± 0.00693 | –
[2], 323.15 K, x2 = 0.3807 | -0.229 ± 0.00932 | –
[2], 323.15 K, x2 = 0.5174 | -0.278 ± 0.0112 | –
[2], 323.15 K, x2 = 0.5224 | -0.279 ± 0.0115 | –
[2], 323.15 K, x2 = 0.6286 | -0.291 ± 0.012 | –
[2], 323.15 K, x2 = 0.7693 | -0.26 ± 0.0105 | –
[2], 323.15 K, x2 = 0.8804 | -0.176 ± 0.00717 | –

From the NIST ThermoML archive (doi:10.1021/je500696p)
